Test results reported in patent US20010054579A1, “METHOD OF SEPARATING DIFFERENT CHEMICALS IN A SAMPLE” (priority 1997, published 2001).

Assays:
Assay type in all cases: physicochemical
[1] = Reversed-phase liquid chromatography retention factor (log k) on propyl-phenyl bonded phase; conditions: C3Ph column; for log k in 80% CH3CN, C3Ph: aqueous 80% acetonitrile at 40° C.
Description: (§1) The inertness and the chemical stability of the synthesized hexyl-phenyl bonded silica gel were studied by looking at the retention factors and peak shapes of pyridine, benzoic acid, 8-hydroxyquinoline, and naphthalene disclosed in T. Hanai, Encyclopedia of Analytical Science (1995), Academic Press, London, p. […] which is hereby incorporated herein by reference. The retention factor, in terms of measured parameters, is “k=(tR−tO)/tO”: where tR is retention time of the measured peak; and to is retention time of non-retained component.
(§2) The retention capacities of alkyl-phenyl bonded silica gels were compared from the retention factors for alkylbenzenes and polycyclic aromatic hydrocarbons (PAH).
(§3) […] The log k values were used for the analysis of hydrophobicity of bonded phases using van der Waals volumes of analytes as the standard.
(§4) The liquid chromatograph was a model HP1090 from Hewlett-Packard (Palo Alto, Calif. USA), and the chemically-bonded silica gel columns, —C18, —C8 and —C5, —C6Ph, —C3Ph, 15 cm×4.6 mm I.D., were from Phenomenex Inc. (Torrance, Calif. USA). Chemicals used were from Aldrich and ChemService. HPLC grade acetonitrile and water were from Fisher Scientific (Tustin, Calif. USA).

[2] = Reversed-phase liquid chromatography retention factor (log k) on pentyl bonded phase; conditions: C5 column; for log k in 80% CH3CN, C5: aqueous 80% acetonitrile at 40° C.
Description: as §1, §2, §3, §4

[3] = Reversed-phase liquid chromatography retention factor (log k) on octyl bonded phase; conditions: C8 column; for log k in 80% CH3CN, C8: aqueous 80% acetonitrile at 40° C.
Description: as §1, §2, §3, §4

[4] = Reversed-phase liquid chromatography retention factor (log k) on hexyl-phenyl bonded phase; conditions: C6Ph column; for log k in 80% CH3CN, C6Ph: aqueous 80% acetonitrile at 40° C.
Description: as §1, §2, §3, §4

[5] = Reversed-phase liquid chromatography retention factor (log k) on octadecyl bonded phase; conditions: C18 column; for log k in 80% CH3CN, C18: aqueous 80% acetonitrile at 40° C.
Description: as §1, §2, §3, §4

Row | log k in 80% CH3CN, C3Ph [1] | log k in 80% CH3CN, C5 [2] | log k in 80% CH3CN, C18 [5] | log k in 80% CH3CN, C8 [3] | log k in 80% CH3CN, C6Ph [4] | SMILES | log k in 70% CH3CN, C3Ph [1] | log k in 70% CH3CN, C5 [2] | log k in 70% CH3CN, C8 [3] | log k in 70% CH3CN, C6Ph [4] | log k in 70% CH3CN, C18 [5]
1 |  |  |  |  |  | c1ccc2c(c1)-c1ccc3ccc4cccc5cc-2c1c3c45 [Indeno(1,2,3 cd)pyrene] | 0.803 | 0.822 | 1.067 | 1.102 | 
2 |  |  |  |  |  | c1ccc2c(c1)ccc1cc3c(ccc4ccccc43)cc12 [Dibenzo(a,h)anthracene] | 0.806 | 0.803 | 1.032 | 1.071 | 1.479
3 |  |  |  |  |  | c1ccc2c(c1)ccc1c3ccccc3ccc21 [Chrysene] | 0.635 | 0.673 | 0.842 | 0.869 | 1.160
4 |  |  |  |  |  | c1ccc2cc3c(cc2c1)-c1cccc2cccc-3c12 [Benzo(k)fluoranthene] | 0.726 | 0.741 | 0.959 | 0.982 | 1.347
5 |  |  |  |  |  | c1ccc2c(c1)ccc1ccccc12 [Phenanthrene] | 0.468 | 0.538 | 0.660 | 0.655 | 0.854
6 | 0.196 | 0.362 | 0.548 | 0.442 | 0.303 | CCCc1ccccc1 [Propylbenzene] | 0.449 | 0.537 | 0.644 | 0.538 | 0.800
7 |  |  |  |  |  | c1cc2c3c(cccc3c1)CC2 [Acenaphthene] | 0.447 |  | 0.629 | 0.616 | 0.814
8 | 0.512 | 0.794 | 1.188 | 0.937 | 0.667 | CCCCCCCc1ccccc1 [Heptylbenzene] | 0.851 | 1.019 | 1.181 | 0.985 | 1.491
9 |  |  |  |  |  | c1ccc2ccccc2c1 [Naphthalene] | 0.305 | 0.410 | 0.486 | 0.470 | 0.582
10 |  |  |  |  |  | c1ccc2c(c1)-c1cccc3cccc-2c13 [Fluoranthene] | 0.535 | 0.599 | 0.747 | 0.746 | 0.989
11 | 0.430 | 0.679 | 1.021 | 0.806 | 0.572 | CCCCCCc1ccccc1 [Hexylbenzene] | 0.747 | 0.894 | 1.043 | 0.871 | 1.310
12 |  |  |  |  |  | c1cc2ccc3cccc4ccc(c1)c2c34 [Pyrene] | 0.553 | 0.614 | 0.777 | 0.778 | 1.038
13 |  |  |  |  |  | c1ccc2c(c1)-c1cccc3c1c-2cc1ccccc13 [Benzo(b)fluoranthene] | 0.714 | 0.741 | 0.943 | 0.970 | 1.325
14 |  |  |  |  |  | c1ccc2cc3c(ccc4ccccc43)cc2c1 [Benzo(a)anthracene] | 0.647 | 0.692 | 0.860 | 0.878 | 1.177
15 |  |  |  |  |  | c1ccc2c(c1)Cc1ccccc1-2 [Fluorene] | 0.436 | 0.527 | 0.629 | 0.602 | 0.794
16 |  |  |  |  |  | c1ccccc1 [Benzene] | 0.167 | 0.209 | 0.281 | 0.230 | 0.340
17 | 0.350 | 0.567 | 0.858 | 0.680 | 0.480 | CCCCCc1ccccc1 [Pentylbenzene] | 0.646 | 0.772 | 0.908 | 0.758 | 1.134
18 |  |  |  |  |  | c1ccc2cc3ccccc3cc2c1 [Anthracene] | 0.490 | 0.562 | 0.688 | 0.679 | 0.894
19 | 0.589 | 0.906 | 1.356 | 1.063 | 0.757 | CCCCCCCCc1ccccc1 [Octylbenzene] | 0.947 | 1.144 | 1.318 | 1.095 | 1.673
20 | 0.668 | 1.022 | 1.528 | 1.193 | 0.849 | CCCCCCCCCc1ccccc1 [Nonylbenzene] | 1.046 | 1.271 | 1.457 | 1.204 | 
21 |  |  |  |  |  | c1ccc2c(c1)cc1ccc3cccc4ccc2c1c34 [Benzo(a)pyrene] | 0.733 | 0.755 | 0.071 | 1.009 | 1.375
22 |  |  |  |  |  | C1=Cc2cccc3cccc1c23 [Acenaphthylene] | 0.364 | 0.450 | 0.540 | 0.521 | 0.663
23 |  |  |  |  |  | c1cc2ccc3ccc4ccc5cccc6c(c1)c2c3c4c56 [Benzo(g,h,i)perylene] | 0.799 | 0.822 | 1.067 | 1.118 | 
24 | 0.748 | 1.139 | 1.697 | 1.324 | 0.941 | CCCCCCCCCCc1ccccc1 [Decylbenzene] | 1.146 | 1.400 |  | 1.313 | 

Row | SMILES | log k in 80% CH3CN, C3Ph [1] | log k in 80% CH3CN, C5 [2] | log k in 80% CH3CN, C18 [5] | log k in 80% CH3CN, C8 [3] | log k in 80% CH3CN, C6Ph [4] | log k in 70% CH3CN, C3Ph [1] | log k in 70% CH3CN, C5 [2] | log k in 70% CH3CN, C8 [3] | log k in 70% CH3CN, C6Ph [4] | log k in 70% CH3CN, C18 [5]
25 | CCc1ccccc1 [Ethylbenzene] | 0.121 | 0.258 | 0.394 | 0.324 | 0.215 | 0.348 | 0.417 | 0.513 | 0.428 | 0.628
26 | CCCCc1ccccc1 [Butylbenzene] | 0.274 | 0.462 | 0.702 | 0.561 | 0.391 | 0.548 | 0.653 | 0.776 | 0.648 | 0.963
